We go through one compound from patent publication US9421204B2, “Oligomer modified diaromatic substituted compounds” (priority 2010, dated 2016).

One data set is described as follows: in vitro. Format: in vitro ADME. The following applies: human. How it is done:
(§1) Each determination was performed in duplicate.
(§2) Vr is the volume of the receiver compartment in cm^3.
(§3) Vd is the volume of the donor compartment in cm^3.
(§4) A is the area of the cell monolayer (1.13 cm^2 for 12-well Transwell®).
(§5) CN is the nominal dosing concentration of the dosing solution in μM.
(§6) CA is the average of the nominal dosing concentration and the measured 120 minute donor concentration in μM.
(§7) Cr^final is the receiver concentration in μM at the end of the incubation period.
(§8) Cd^final is the concentration of the donor in μM at the end of the incubation period.

The next data set has as its system Caco-2 monolayers. Kind of data set: in vitro. In kind it is in vitro ADME. The following applies: human, Caco-2, 2 h, 10 μM, pH 7.4. As to the method:
as §1, §2, §3, §4, §5, §6, §7, §8

Data set [1] is described as follows: Log P determination (Sirius GLpKa). In kind it is physicochemical. How it is done:
The Sirius GLpKa instrument is used to determine the pKa and Log P. A blank standardization has to be completed first and passed in order to conduct the compound experiments. The solutions used by the instrument for the blank titration include water, a pH solution, and a surfactant (TRITON X-100). The TRITON X-100 was purchased commercially from Sirus. The 0.5% solution of TRITON X-100 was used in the experiment. In a 1 L volumetric flask 5 mls of TRITON X-100 is added and MILLI Q water to volume. The vessels used by the instrument were filled to ⅓ of their volume with each solution. Therefore the assay tray contains one vessel for water, pH solution, and surfactant for the blank run. The temperature of the water bath for the instrument is 25° C. The blank is calculated as an average of three “good” experiments. The “good” was denoted by a green check mark next to the assay number in the computer software. Once the blank was run successfully the instrument was ready to conduct the experiments. An additional method has to be set up for the Log P determinations for each compound. The conjugates are weighed into vessels in the same manner as for the previous experiment, i.e., 10% of the molecular weight. The vessels are placed in the assay tray of the instrument. The experimental parameters are entered into the computer. These included sample weight, molecular weight, assay type (Partition Log P), number of assays (three), and pKa value of the parent drug from the previous experiment. The run was started. There are three measurements for each run that are averaged to obtain the final results from the data points collected in the calculation software. All runs were denoted as “good” by the green check mark next to the assay number.

A short description of data set [2]: Toxicity XTT in CEM-SS cells (cytoprotection assay). In kind it is cell-based. The settings on record: human, CEM-SS TC50. As to the method:
(§9) Cell Preparation—CEM-SS cells were passaged in T-75 flasks prior to use in the antiviral assay. On the day preceding the assay, the cells were split 1:2 to assure they were in an exponential growth phase at the time of infection. Total cell and viability quantification was performed using a hemocytometer and Trypan Blue dye exclusion. Cell viability was greater than 95% for the cells to be utilized in the assay. The cells were resuspended at 5×10^4 cells per ml in tissue culture medium and added to the drug containing microtiter plates in a volume of 50 μL.
(§10) Plate Format—Each plate contains cell control wells (cells only), virus control wells (cells plus virus), drug toxicity wells (cells plus drug only), drug colorimetric control wells (drug only) as well as experimental wells (drug plus cells plus virus). Samples were tested in triplicate with eleven half-log dilutions per compound.
(§11) Efficacy and Toxicity XTT—Following incubation at 37° C. in a 5% CO2 incubator, the test plates were stained with the tetrazolium dye XTT (2,3-bis(2-methoxy-4-nitro-5-sulfophenyl)-5-[(phenylamino)carbonyl]-2H-tetrazolium hydroxide). XTT-tetrazolium is metabolized by the mitochondrial enzymes of metabolically active cells to a soluble formazan product, allowing rapid quantitative analysis of the inhibition of HIV induced cell killing by anti-HIV test substances. XTT solution was prepared daily as a stock of 1 mg/mL in RPMI1640. Phenazine methosulfate (PMS) solution was prepared at 0.15 mg/mL in PBS and stored in the dark at −20° C. XTT/PMS stock was prepared immediately before use by adding 40 μL of PMS per ml of XTT solution. Fifty microliters of XTT/PMS was added to each well of the plate and the plate was re-incubated for 4 hours at 37° C. Plates were sealed with adhesive plate sealers and shaken gently or inverted several times to mix the soluble fosmazan product and the plate was read spectrophotometrically at 450/650 nm with a Molecular Devices Vmax plate reader.
(§12) Data Analysis—Raw data was collected from the Softmax Pro 4.6 software and imported into a Excel XLFit4 spreadsheet for analysis by four parameter curve fit calculations. Both antiviral activity and toxicity are calculated.
(Tetrazolium assays rely on reduction of a dye to a coloured formazan, in cell work by metabolically active cells.)

The subject of a further data set is CEM-SS cells. The data set is described as above. The following applies: human. Format: cell-based. How it is done:
as §9, §10, §11, §12

Data set [3] in a line: pKa determination (Sirius GLpKa). In kind it is physicochemical. As to the method:
The Sirius GLpKa instrument is used to determine the pKa and Log P. A blank standardization has to be completed first and passed in order to conduct the compound experiments. The solutions used by the instrument for the blank titration include water, a pH solution, and a surfactant (TRITON X-100). The TRITON X-100 was purchased commercially from Sirus. The 0.5% solution of TRITON X-100 was used in the experiment. In a 1 L volumetric flask 5 mls of TRITON X-100 is added and MILLI Q water to volume. The vessels used by the instrument were filled to ⅓ of their volume with each solution. Therefore the assay tray contains one vessel for water, pH solution, and surfactant for the blank run. The temperature of the water bath for the instrument is 25° C. The blank is calculated as an average of three “good” experiments. The “good” was denoted by a green check mark next to the assay number in the computer software. Once the blank was run successfully the instrument was ready to conduct the experiments.
The pKa has to be determined first in order to calculate the Log P. The API is used to determine the pKa needed for the Log P experiment followed by the conjugates. The base compound was first weighed into a vessel. The amount weighed for each sample was 10% of the molecular weight of the compound. The same procedure was followed for each conjugate. The vessels were placed in the assay tray of the instrument. A method had to be set up for the pKa run. The experimental parameters are entered into the computer software. These included sample weight, molecular weight, assay type (aqueous pKa), number of assays (three), and titration range (generally 3.5-12). The run was started. There are three measurements for each run that are averaged to obtain the final results from the data points collected in the calculation software. All runs were denoted as “good” by the green check mark next to the assay number.

Molecules are shown by their SMILES. Where a name gives a salt, the structure may show the parent alone.

Turning to `CC(C)Nc1cccnc1N1CCN(C(=O)c2cc3cc(NS(C)(=O)=O)ccc3[nH]2)CC1` [Delavirdine Mesylate, reference compound], in “in vitro” (Caco-2, pH 7.4, Average Papp, A→B), the Papp A→B (usually the apparent permeability from the apical to the basolateral side of a cell layer) at 2 hours, 10 μM was 9.87 ×10⁻⁶ cm/s. For the same compound, the Papp B→A – broadly, how fast a substance crosses the layer from the basolateral side – at 2 hours, 10 μM in the data set “in vitro” (Caco-2, pH 7.4, Average Papp, B→A) is 67.9 ×10⁻⁶ cm/s. In addition, the recovery at 2 h, 10 μM in the data set “in vitro” (Caco-2, pH 7.4, Recovery (%) A→B) came out at 65%. For the same compound, in the data set on Caco-2 monolayers, the “Recovery (%) A→B” value is 82% and the “Recovery (%) B→A” value amounted to 86%. The logP (as a rule, a log measure of how a compound divides between an organic and an aqueous phase) in data set [1] was determined as 3.5. Besides, the CC50 (as a rule, the concentration giving 50% cytotoxicity) in data set [2] was 27.2 µM. Moreover, the CC50 in the data set on CEM-SS cells turned out to be 52.4 µM. In data set [3], this compound came in with a pKa1 of 4.323 and a pKa2 of 9.272.
